The subject of the assay is P. falciparum 3D7 growth, pLDH absorbance. The assay is described as follows: P. falciparum 3D7 growth inhibition, dose response, strain 3D7 (AID 2305).

The text below walks through data of PubChem BioAssay AID2305 (GlaxoSmithKline (GSK), 2010).

By IC50 is commonly meant the concentration that inhibits the measured activity by half. Read a high IC50 as lower potency. As to `Cc1c(Cc2ccccc2Cl)cnc2nc(N)nc(N)c12`, the IC50 is 10 nM. The value for `Cc1cc(N(CCCN(C)C)Cc2cc(F)cc(F)c2)nc(Nc2ccc(Cl)cc2)n1` was 540 nM; that for `Fc1cc(Cl)ccc1Nc1ccnc2cc(-c3ccc(CNCCN4CCOCC4)o3)ccc12` was 280 nM.

`CNC(=O)c1cnc(Nc2ccc(N3CCN(C)CC3)cc2)nc1Nc1ccccc1OC` returned a half-maximal inhibitory concentration (IC50) of 930 nM. In turn, `CN1CCC(COC(=O)C(O)(c2ccccc2)c2ccccc2)C1` (configuration not stated) returned a half-maximal inhibitory concentration (IC50) of 1000 nM. The value for `O=[N+]([O-])c1cccc(CNC2CCN(Cc3ccc(Cl)c(Cl)c3)CC2)c1` was 460 nM; that for `NC1=NC(c2ccccc2)N(c2ccc(Cl)c(Cl)c2)C(N)=N1` (configuration not stated) was 10 nM.

In turn, `O=C(Nc1ccon1)c1cc(-c2cccnc2)nc2ccc(Br)cc12` yielded a concentration for half-maximal inhibition (IC50) of 740 nM. With `C=Cc1cc(NC(=O)N2CCc3cc(OC)c(C(F)(F)F)cc32)cc(-c2cccnc2)c1` the figure was 700 nM.

`Cc1cc(=O)[nH]c(NC#N)n1` came in with a half-inhibitory concentration (IC50) of 170 nM.

`COc1ccc(NC(=O)c2ccc(-c3cc(NC(=O)c4ccnc(N5CCCC5)c4)ccc3C)s2)cc1N1CCN(C)CC1` came in with a concentration for half-maximal inhibition (IC50) of 250 nM.

`O=[N+]([O-])c1cnc(Nc2ccccc2O)nc1Nc1ccccc1O`: the IC50 came to 900 nM. With `Cn1cncc1C(=O)Nc1cccc(-c2cccc(-c3nc4ccc(C(F)(F)F)cc4[nH]3)c2)c1` the figure was 200 nM. `Cc1cccc(CN2CCCN(Cc3ccc(C(=O)Nc4ccc(C(C)(C)C)cc4)cc3)CC2)c1` gave a half-maximal inhibitory concentration (IC50) of 730 nM. The value for `COc1ccc(Cc2cccc(C(C(=O)NCc3cc(Cl)cc(Cl)c3)N3CCN(C)CC3)c2)cc1` (configuration not stated) was 690 nM.

The compound `Cc1ccc(O)c(Nc2c3c(c(C#N)c4nc5ccccc5n24)CCC3)c1` yielded a concentration for half-maximal inhibition (IC50) of 1250 nM. With `COc1ccc(OC)c(C(O)CNC(C)C)c1` (configuration not stated) the figure was 60 nM; with `CCCCCN1CCCC(CNS(=O)(=O)c2cccc(C(=O)Nc3ccc(C(F)(F)F)cc3)c2)C1` (configuration not stated), 830 nM; with `N=C(N)c1cccc(OCCCOc2cccc(NC(=O)Nc3ccc([N+](=O)[O-])cc3)c2)c1`, 860 nM. With `CCCCc1ccc(C(=O)NC2CCN(C[C@H](O)c3ccnc4ccc(OC)cc34)CC2)cc1` the figure was 730 nM. The value for `COc1cccc(C(=O)Nc2ccc(Nc3nc(C)cc(N(C)C)n3)cc2)c1OC` was 1020 nM; that for `CC(=O)Nc1ccc(C(=O)Nc2cccc(-c3cccc(-c4nc5c(C)cccc5[nH]4)c3)c2)cn1` was 60 nM. `COc1ccc(O)c(Cc2cnc3nc(N)nc(N)c3c2C)c1`: the IC50 came to 40 nM. `CC(COc1ccc2c(c1)OC(C)(C)CC2c1ccccc1)NCC(O)c1cccc(Cl)c1` (configuration not stated) yielded an IC50 of 750 nM. The value for `COc1cccc(-c2[nH]c3ccccc3c2CN2CCC(c3c(C)cccc3C)CC2)c1` was 1020 nM; that for `O=C(/C=C/c1ccc(Cl)c(Cl)c1)NCCCCCCN1CCN(C(=O)Nc2cccc(Cl)c2)CC1` was 980 nM.

Turning to `Cc1cccc2c(/C=C/C(=O)NC3CCC(CCN4CCc5ccc(C#N)cc5CC4)CC3)c[nH]c12` (configuration not stated), the concentration for half-maximal inhibition (IC50) was 1220 nM.

Take `Cc1ccc(-c2noc(COc3ccccc3C(=O)NC3CCCC3)n2)cc1`: the IC50 amounted to 880 nM. As for `Oc1ccc2[nH]cc(C3=CCN(Cc4ccccc4)CC3)c2c1`, the IC50 was determined as 980 nM. The value for `Cc1noc(C)c1-c1ccc2c(Nc3ccccc3C(C)(C)C)c(C(=O)NCc3ccc(C(F)(F)F)cc3)cnc2c1` was 760 nM; that for `COc1cccc(CNC(=O)[C@@H]2CN(C(=O)c3ccccc3)CCN2)c1` was 1160 nM. `Cc1ccc(Nc2nc(C)cc(N3CCN(CCc4ccccc4)CC3)n2)cc1` displayed a half-maximal inhibitory concentration (IC50) of 970 nM. With `COc1ccc(NC(=O)[C@H](Cc2ccccc2)Nc2cc(C)nc(NCCc3ccc(F)cc3)n2)cc1` the figure was 1120 nM; with `O=C(NCCN1CCC(NC(=O)c2ccc(-c3ccccn3)s2)CC1)c1ccc(Cl)c(Cl)c1`, 880 nM. With `CC1CN(Cc2ccc(-c3ccc(-c4nc5ccc(F)cc5[nH]4)cc3)cc2)CC(C)O1` (configuration not stated) the figure was 560 nM; with `Fc1ccc(CNc2nc(-c3ccc(F)c(C(F)(F)F)c3)n(-c3cccc(C(F)(F)F)c3)n2)cc1`, 560 nM; with `Cn1c(Sc2ncnc3sccc23)nc2ccccc21`, 190 nM. Compound `Nc1nonc1-c1nc2c(-c3cccc(Cl)c3)nccc2n1CCCNC(=O)Cc1ccc(Cl)cc1` returned a 50% inhibitory concentration (IC50) of 270 nM. With `Cc1cccc(CCCNC(=O)CN(c2cccc(C(F)(F)F)c2)S(=O)(=O)c2ccc(C(F)(F)F)cc2)c1` the figure was 680 nM; with `CCCOc1cccc(C(=O)N[C@@H](Cc2ccccc2)[C@H](O)CNCc2ccccc2OC)c1`, 880 nM. The value for `Cc1cc(N2CCCN(CC3CCCCC3)CC2)nc(Nc2ccc(Br)cc2)n1` was 940 nM; that for `Oc1cc(Nc2ccnc3cc(-c4cccc(CN5CCCCC5)c4)ccc23)c(F)cc1Cl` was 100 nM. With `COc1ccc(NC(=O)[C@H](CC(C)C)Nc2cc(C)nc(NCCc3cccs3)n2)cc1`, the IC50 stood at 960 nM.

On to `COc1cc(CCNC(=O)Cc2ccc3ccccc3c2)ccc1OCc1ccccc1`, for which the IC50 is 1020 nM. With `COc1ccc(CCn2c(=N)c(C(=O)NCc3ccccc3)cc3c(=O)n4cccc(C)c4nc32)cc1` the figure was 340 nM.

Regarding `Cc1c(F)cc(C(=O)NC2CC2)cc1-c1ccc2c(cnn2S(=O)(=O)c2cccs2)c1`, the half-maximal inhibitory concentration (IC50) was found to be 860 nM. In turn, `O=C(Nc1cccc(-c2nn3ccccc3c2-c2ccnc(Nc3cccc(F)c3)n2)c1)c1c(F)ccc(F)c1Cl` returned an IC50 of 1140 nM.

`O=C(NCc1ccco1)c1ccc(CN2CCN(C(c3ccccc3)c3ccccc3)CC2)cc1`: the 50% inhibitory concentration (IC50) amounted to 790 nM. With `Cc1cccc2[nH]c(-c3ccc(-c4ccc(CN5CCN(C6CCN(C)CC6)CC5)cc4)s3)nc12` the figure was 140 nM; with `CCCCCCOc1ccc(C(=O)NCCCC2CCCN(CCCCCNC(=O)C=Cc3ccc(Cl)c(Cl)c3)C2)cc1` (configuration not stated), 700 nM; with `CCN1CCN(c2cc(C)c3cc(NC(=O)c4cccc(OC)c4)ccc3n2)CC1`, 800 nM.

As for `CC(=O)N1N=C(c2ccc(Cl)cc2)Sc2c1nc(C1CCCCC1)n2C(C)=O`, the IC50 was 250 nM. With `CCc1ccc2c(c1O)CCN(C)C2Cc1ccccc1Cl` (configuration not stated) the figure was 250 nM. With `CCC(C)NS(=O)(=O)c1ccc2nc(Nc3ccc(C)cc3)n(C3CCCCC3)c2c1` (configuration not stated) the figure was 460 nM; with `CC(=O)Nc1ccc(CN(Cc2cccc(OC(C)(C)C)c2)Cc2ccc3c(c2)OCCO3)cc1`, 140 nM. The value for `O=C(Nc1ccc(Cl)c(Cl)c1)N1CCc2cc3nccc(N4CCN5CCC[C@H]5C4)c3cc21` was 630 nM.

With `Cc1ccc(-n2c(C)nc3c(Nc4ccc(-c5ccncc5)cc4)ncnc32)c(C)c1`, the concentration for half-maximal inhibition (IC50) came to 100 nM. In turn, `O=C(Nc1ccc2nc3n(c(=O)c2c1)CCCCC3)C(=O)N1CCC(Cc2ccccc2)CC1` gave a 50% inhibitory concentration (IC50) of 760 nM.

Turning to `CCOc1cc(Cl)c(C(C)NC(=O)c2ccccc2)cc1OCC` (configuration not stated), the IC50 was determined as 880 nM. Turning to `CC(C)N1CCN(C(CN2CCN(CCCOc3ccc4ccccc4c3)CC2)c2ccc(F)cc2)CC1` (configuration not stated), the IC50 was found to be 580 nM. With `Cc1ccc(Cn2c(N3CCC(C(=O)NCc4ccccn4)CC3)nc3ccccc32)cc1` the figure was 410 nM; with `Oc1ccc(Cc2cc(Oc3c(I)cc(CCc4ncc[nH]4)cc3I)ccc2O)cc1`, 710 nM; with `O=C(c1ccc(F)c2ccccc12)N1CCc2cc3nccc(N4CCN5CCC[C@H]5C4)c3cc21`, 1000 nM. With `CCCCCC(C)C(C)c1cc(O)c2c3c(c(=O)oc2c1)CN(Cc1ccccc1)CC3` (configuration not stated) the figure was 600 nM. `CCCCCCNC(=O)C1Cc2c([nH]c3cc(Cl)ccc23)C2(CCN(CCC)CC2)N1` (configuration not stated) had an IC50 of 880 nM. In turn, `CCCCCN1CCCC(NS(=O)(=O)c2ccc(C(=O)Nc3ccc(C(F)(F)F)cc3)cc2)C1` (configuration not stated) had an IC50 of 1630 nM. Compound `CCC(CC)N1CCN(CC(=O)Nc2ccc([N+](=O)[O-])cc2C(=O)Nc2cccc(OC)c2)CC1` displayed a half-inhibitory concentration (IC50) of 870 nM. The value for `Cc1cc(N[C@@H](Cc2ccccc2)C(=O)NCc2cccs2)nc(NCCOc2ccccc2)n1` was 1480 nM. With `O=C(c1cc(-c2cccs2)[nH]n1)N1CCN(S(=O)(=O)c2ccc(Cl)s2)CC1` the figure was 870 nM; with `COC(=O)C(=C(C)C)N1C(=O)[C@@H](NC(=O)OCc2ccccc2)[C@H]1SS[C@@H]1[C@H](NC(=O)OCc2ccccc2)C(=O)N1C(C(=O)OC)=C(C)C`, 430 nM. The value for `O=S(=O)(c1cc(Cl)ccc1Cl)N1CCCCC(c2ccc(C(F)(F)F)cc2)=N1` was 1000 nM; that for `FC(F)(F)c1cc(Nc2ccc(Oc3ccccc3)cc2)c2cc(-c3ccncc3)ccc2n1` was 450 nM. As for `COc1cc(CN2CCC(CO)(Cc3cccc(C(F)(F)F)c3)CC2)c(Cl)cc1O`, the IC50 came to 900 nM. The value for `O=C(Nc1ccc(-c2nc3ccccc3[nH]2)cc1)c1cccc(S(=O)(=O)N2CCOCC2)c1` was 900 nM; that for `COc1ccc(CNCc2ccc(F)cc2)cc1-c1ccc(S(=O)(=O)NCCN2CCCC2)cc1` was 1040 nM; that for `CCCOc1ccc(C=C(CC(=O)O)c2nc3ccccc3s2)cc1OCC` was 550 nM. With `N#Cc1ccc2c(c1)CCN(CCC1CCC(NC(=O)c3ccc(-c4ccccc4)s3)CC1)CC2` (configuration not stated) the figure was 680 nM; with `Cc1occc1C(=O)Nc1nc(-c2ccccn2)nc2ccsc12`, 900 nM. Turning to `O=C(Nc1ccsc1)Nc1cccc(-c2cccc(-c3nc4ccccc4[nH]3)c2)c1`, the IC50 was found to be 120 nM. With `Oc1ccccc1-c1nc2cccnc2n1CCc1cccc(C(F)(F)F)c1` the figure was 1270 nM; with `CN(C)CCNCc1ncsc1-c1ccc2c(Nc3ccc(F)cc3Cl)ccnc2c1`, 1470 nM; with `O=C(NC1CCC(CN2CCC(c3c[nH]c4ccccc34)CC2)CC1)c1cc(-c2ccccc2Cl)oc1C(F)(F)F` (configuration not stated), 770 nM. The value for `O=C(/C=C/c1ccc(C(F)(F)F)cc1)NCCCCCN1CCCN(C(=O)Nc2ccc(Cl)cc2)CC1` was 870 nM.

As to `Cc1c(C(=O)[C@@H]2C[C@H]2CN2CCC(N3CCCCC3)CC2)sc2ccccc12`, the half-maximal inhibitory concentration (IC50) amounted to 1020 nM.

The compound `CCN(CCS(C)(=O)=O)Cc1ccc(-c2ccc3ncnc(Nc4ccc(OCc5cccc(F)c5)c(Cl)c4)c3c2)o1` showed an IC50 of 610 nM. The value for `COc1ccc2[nH]cc(C3=CCN(Cc4ccccc4)CC3)c2c1` was 570 nM; that for `CCCN=CNc1cc(-c2csc(N=C(N)N)n2)cc([N+](=O)[O-])c1` was 1740 nM.
